Assay [1] has as its system Balb/3T3 clone A31 cells. The assay is described as follows: Inhibition of cell migration stimulated by bFGF (chemotaxis chamber). The class given is cell-based, mouse. Conditions: various concentrations, 1 ng/ml bFGF, 5 hours, FIG. 7. An excerpt: The effect of complestatin on cell migration stimulated by bFGF was investigated using a 96-well chemotaxis chamber (available from NEURO PROBE CO.) installed with an 8 μm frame filter (available from NEURO PROBE CO.) precoated with gelatin.
The experimental principle is illustrated-in FIG. 6. When bFGF is placed in the bottom well, cells adhered to the frame filter in the top well migrate to the bottom well.
Addition of complestatin to the bottom well can be used to investigate the inhibitory effect of complestatin on cell movement.
(1) 100 μl of cell suspension (0.5% CS/DMEM containing Balb/3T3 clone A31 cells at a concentration of 5×10^5 cells/ml) were placed in the top wells. In addition, 35 μl of 0.5% CS/DMEM containing various concentrations of complestatin and 1 ng/ml of bFGF were placed in the bottom wells.
(2) After incubating the chamber for 5 hours at 37° C. in a CO2 incubator, the frame filter was removed from the chamber, the cells were stained with Diff-Quik staining solution (trade name, available from Kokusai Shiyaku Co.), and the number of cells that migrated to the bottom surface of the filter was counted. Furthermore, with the exception of not adding complestatin to the bottom wells, the same procedure was performed for the control.

In assay [2] the test system is chorioallantoic membrane of chick embryo. As to the kind of experiment: Angiogenesis in the chick embryo chorioallantoic membrane. In kind it is in vivo. Conditions: 2 days, % of fertilized eggs with inhibition. As to the method: The inhibitory effect of complestatin on angiogenesis in the chorioallantoic membrane of chick embryo was investigated according to the method of T. Oikawa, et al. (J. Antibiotics, 44, 1033, 1991). To begin with, a portion of the uppermost part of the air chamber measuring about 1 cm square was removed from three-day-old fertilized chicken eggs, and cultured for 2 days in a humidified incubator. A silicon ring having an outer diameter of 5 mm and inner diameter of 3 mm was placed on the 5-day-old chorioallantoic membrane, and 10 μl of a 1% methylcellulose solution containing various concentrations of the complestatin obtained in Example 2 were added to the inside of the ring.
Moreover, after incubating for 2 days, a suitable amount of fat emulsion (Intralipos, trade name, available from Midori Juji Co.) was injected beneath the chorioallantoic membrane to facilitate microscopic observation followed by observation of angiogenesis in the chorioallantoic membrane. Fertilized eggs in which a region free of blood vessels in the chorioallantoic membrane (having a diameter of at least 3 mm) were judged as having observed inhibition of angiogenesis by complestatin. Angiogenesis inhibition rate (%) was calculated according to the following formula:
100× (number of fertilized eggs in which inhibition of angiogenesis was observed)/(number of fertilized eggs used in test)

Assay [3] has as its system fetal bovine heart endothelial (FBHE) cells. The assay is described as follows: Inhibition of FBHE cell growth stimulated by bFGF. Conditions: various concentrations, 1 ng/ml bFGF, 2 days, FIG. 8. The class given is cell-based. As to the method:
(§1) Growth of both fetal bovine heart endothelial (FBHE) cells and human umbilical vein endothelial cells (HUVEC) was promoted by addition of bFGF to the media. The inhibitory effect of complestatin on the cell growth stimulated by bFGF was investigated using these cells.
(1) 10% CS/DMEM containing FBHE at a concentration of 1×10^4 cells/ml was prepared for the cell suspension. One ml aliquots of this solution were then inoculated into each well of a 12-well plate and cultured for one day at 37° C. in a CO2 incubator. 1 ng/ml of bFGF and various concentrations of complestatin were added to each well followed by additional culturing for 2 days at 37° C. in a CO2 incubator. Next, the number of cells in each well was counted with a Coulter Counter (trade name, available from Coulter Electronics Co.).

The subject of assay [4] is bFGF receptors. The assay is described as follows: Inhibition of specific binding of 125I-bFGF to receptors on Balb/3T3 clone A31 cells. Details: species or system mouse. The conditions noted are these: various concentrations, 2 ng/ml 125I-bFGF, 1.5 hours at 4° C., FIG. 5. On the procedure:
(3) Inhibitory effects on binding of bFGF to receptors was investigated for the above-mentioned sample solution according to the method of A. Yayon, et al. (Proc. Natl. Acad. Sci., USA, 90, 10643, 1993).
Namely, 1 ml of medium containing mouse fibroblast cell Balb/3T3 clone A31 cells at a concentration of 1×10^5 cells/ml (Dulbecco's modified Eagle's medium containing 10% calf serum, 25 mM HEPES (pH 7.5), 10 units/ml of penicillin and 10 μg/ml of streptomycin (10% CS/DMEM)) was added to a 24-well culture plate, and cultured for one day at 37° C. in a CO2 incubator. Furthermore, mouse fibroblast cells are known to express FGF receptors on their cell surfaces (J. Biol. Chem., 268, 9611, 1993). […]
Following completion of the reaction, after removing the binding medium and washing once with cold binding medium, the plate was washed twice with cold PBS (0.2 g potassium chloride, 0.2 g potassium primary phosphate, 8 g sodium chloride, 1.15 g sodium secondary phosphate and 1 liter of deionized water) at pH 7.5 containing 1.6 M sodium chloride. […] This procedure was repeated again, the solution was combined with the previous solution and then transferred to an RIA tube where radioactivity was measured with a gamma counter (available from Pharmacia Co.).
The amount of bFGF bound to receptors (specifically bound amount) was determined according to the following formula: […]

Assay [5] relates to human leukemia (HL-60) cells. As to the kind of experiment: Antitumor activity, HL-60 cells transplanted subcutaneously to SCID mice. The class given is in vivo, mouse. The conditions noted are these: 5 mg/kg intraperitoneally, days 1 to 3, 5 to 9, 12 and 13, CB17 SCID mice, tumor size after 20 days. As to the method: The antitumor activity of complestatin was confirmed in an experiment using human leukemia (HL-60) cells. To begin with, 5×10^6 HL-60 cells were transplanted subcutaneously to CB17. SCID mice (control group: 4 mice, experimental group: 4 mice), and tumor size was measured after 20 days. Complestatin was dissolved in PBS, and administered intraperitoneally at 250μl/day once a day during days 1 to 3, days 5 to 9 and days 12 and 13. The dosing concentration of complestatin was set at 5 mg/kg. The tumor growth inhibition rate caused by complestatin was calculated according to the following formula:
{1− (tumor size at dosing concentration/tumor size at dosing concentration of 0 mg/kg)}×100

Assay [6] has as its system mouse fibrosarcoma (Meth A) cells. As to the kind of experiment: Antitumor activity, Meth A cells transplanted subcutaneously to mice. In kind it is in vivo. Conditions: days 1 to 4 and 7 to 9, BALB/c-nu/nu mice, tumor size after 10 days. On the procedure:
The antitumor activity of complestatin was confirmed in an experiment using mouse fibrosarcoma (Meth A) cells. To begin with, 1×10^6 Meth A cells cultured in the abdominal cavity of BALB/c-nu/nu mice were transplanted subcutaneously to BALB/c-nu/nu mice (control group: 5 mice, experimental group: 5 mice), and tumor size was measured after 10 days.
Complestatin was dissolved in PBS, and administered intraperitoneally at 250μl/day once a day during days 1 to 4 and days 7 to 9. The dosing concentrations of complestatin were set at 5 mg/kg and 10 mg/kg. The tumor growth inhibition rate caused by complestatin was calculated according to the following formula:
{1− (tumor size at each dosing concentration/tumor size at dosing concentration of 0 mg/kg)}×100

Assay [7] concerns human umbilical vein endothelial cells (HUVEC). The assay is described as follows: Inhibition of HUVEC cell growth stimulated by bFGF. The conditions noted are these: various concentrations, 10 ng/ml bFGF, 2 days, FIG. 8. In kind it is cell-based. On the procedure: as §1
(2) On the other hand, medium containing HUVEC at a concentration of 1×10^4 cells/ml (MCDB131 medium containing 10% fetal bovine serum, 25 mM HEPES (pH 7.5), 10 units/ml of penicillin and 10 μg/ml of streptomycin) was prepared for the cell suspension. One ml aliquots of the cell suspension were inoculated into each well of a 12-well plate precoated with type I collagen, and incubated for one day at 37° C. in a CO2 incubator. 10 ng/ml of bFGF and various concentrations of complestatin were added to each well followed by additional incubation for 2 days at 37° C. in a CO2 incubator. Next, the number of cells in each well was counted with a Coulter Counter (trade name, available from Coulter Electronics Co.). Furthermore, with the exception of not adding complestatin, the same procedure was performed for the control.

Assay [8] has as its system bovine aortic endothelial cells (BAEC). As to the kind of experiment: Tube formation of vascular endothelial cells in collagen gel. Conditions: Bos taurus, 48 h, 2 days, read-out: Tube formation inhibition rate. The class given is cell-based. As to the method:
The inhibitory effect of complestatin on angiogenesis was investigated using a modified method of Furubayashi, et al. (J. Jap. Pharm., 105, 357, 1995). In this method, vascular endothelial cells form a tube (blood vessel-like tubular structure) in collagen gel. Addition of complestatin to this system makes it possible to investigate the inhibitory effect of complestatin on angiogenesis.
(1) Collagen gel was prepared in the manner described below. To begin with, type I collagen solution (3 mg/ml, available from Wako Junyaku Co.), 10-fold concentrated HEPES-free DMEM, reconstitution buffer (2.2 g of sodium bicarbonate and 4.77 g of HEPES dissolved in 100 ml of 0.05 N aqueous sodium hydroxide solution) and deionized water were mixed on ice at a ratio of 5:1:1:3 followed by the addition of 0.75 ml aliquots to each well of a 12-well plate. This plate was then incubated for 20 minutes in an incubator at 37° C. to form a gel.
(2) A cell suspension was prepared by suspending 3×10^5 cells/ml of bovine aortic endothelial cells (BAEC) in 10% CS/DMEM, after which 1.5 ml aliquots were inoculated onto the collagen gel followed by culturing for one day at 37° C. in a CO2 incubator. After removing the medium and washing four times with DMEM, 0.75 ml aliquots of the above-mentioned type I collagen solution were layered onto the plate followed by gelation at 37° C. in an incubator. 1.5 ml of 0.5% CS/DMEM containing various concentrations of complestatin were added to the resulting gel followed by culturing for 2 days at 37° C. in a CO2 incubator.
(3) After culturing, photographs were taken of four fields randomly selected for each well and these photographs were then analyzed by using the Olympus image processing analyzer Type SP500F (trade name, available from Olympus Co.) to determine the lengths of all tubes. The length of tube was then divided by the field area to determine the tube length per unit area.
The tube formation inhibition rate of complestatin was calculated according to the following formula:
{1− (tube length per unit area at each concentration/tube length per unit area in the absence of addition of complestatin)}×100

Molecules are shown by their SMILES.

For the molecule `CN1C(=O)C(c2cc(Cl)c(O)c(Cl)c2)NC(=O)C2NC(=O)C(c3cc(Cl)c(O)c(Cl)c3)NC(=O)C(NC(=O)C(=O)c3cc(Cl)c(O)c(Cl)c3)Cc3c[nH]c4cc(ccc34)-c3cc2cc(c3O)Oc2ccc(cc2)CC1C(=O)NC(C(=O)O)c1ccc(O)cc1` (centres unmarked) [complestatin], the “inhibition of Balb/3T3 clone A31 cell migration stimulated by bFGF” value in assay [1] is listed as “concentration-dependently inhibit”. Further, the Angiogenesis inhibition rate in assay [2] (6.25 μg/egg) is 14%; in assay [2] (12.5 μg/egg) it was 33%; in assay [2] (25 μg/egg), 33%; in assay [2] (50 μg/egg), 52%; in assay [2] (100 μg/egg), 77%. In addition, in assay [3], the “inhibition of growth of FBHE promoted by bFGF” value is given as “concentration-dependently inhibit”. For the same molecule, the “inhibition of specific binding of 125I-bFGF to receptors” value in assay [4] is recorded as “concentration-dependently inhibit”. The figures for the “Growth inhibition rate (tumor size)” value in assay [5], in assay [6] (5 mg/kg intraperitoneally) and in assay [6] (10 mg/kg intraperitoneally) were 76%, 40% and 68%, respectively. In addition, in assay [7], the “inhibition of growth of HUVEC promoted by bFGF” value is “concentration-dependently inhibit”. Also, in assay [8] (0.78 μg/ml complestatin), the inhibition at 0.78 µg/mL amounted to 3%. Further, the inhibition at 1.6 µg/mL in assay [8] (1.6 μg/ml complestatin) amounted to 17%. Besides, the inhibition at 3.1 µg/mL in assay [8] (3.1 μg/ml complestatin) was found to be 10%. Further, in assay [8] (6.3 μg/ml complestatin), the inhibition at 6.3 µg/mL is 21%. Besides, the inhibition at 13 µg/mL in assay [8] (13 μg/ml complestatin) came out at 43%. The inhibition at 25 µg/mL in assay [8] (25 μg/ml complestatin) worked out at 91%. The inhibition at 50 µg/mL in assay [8] (50 μg/ml complestatin) turned out to be 94%. The inhibition at 100 µg/mL in assay [8] (100 μg/ml complestatin) is 99%.

For orientation: inhibition means the relative decrease from the control value, in per cent.
